The text below walks through data of ChEMBL document CHEMBL1149924, “Structure activity studies on pseudo-symmetrical HIV-1 protease inhibitors” (Bioorg Med Chem Lett, 1993).

pIC50, pKi: −log10 of the molar value. Bounds are passed on as bounds.

The target in assay [1] is T1, Human immunodeficiency virus type 1 protease (Human immunodeficiency virus 1, UniProt Q72874). The assay is described as follows: Inhibitory activity against HIV-1 protease.
For a further assay, the system named is MT2. The assay is described as follows: Compound was evaluated for its inhibitory activity against HIV-1-IIIB infected MT2 cells (human T lymphoid cells). It counts as functional, cell-based.
Assay [2] addresses T1, Human immunodeficiency virus type 1 protease. Nature of the assay: Compound was evaluated for its inhibitory activity in recombinant HIV-l protease.
Assay [3] shares this target. Nature of the assay: Compound was evaluated for its binding affinity against HIV-1 protease using [125I]-SPA (scintillation proximity assay). (In a scintillation proximity assay essentially only radioactivity close to the scintillant gives light.)
For assay [4] the target is unchanged. The assay is described as follows: Compound was evaluated for its inhibitory activity against recombinant HIV-1 protease using [125I]-SPA (scintillation proximity assay).

In assay [1], `CCCC[C@H](CC(O)C[C@@H](CCCC)C(=O)N[C@@H](C)C(=O)N[C@@H](C)C(=O)OC)C(=O)N[C@@H](C)C(=O)N[C@@H](C)C(=O)OC` gave a pIC50 of 7.12.
Same read-out and setting: the result for `CCCC[C@H](CC1(C[C@@H](CCCC)C(=O)N[C@@H](CC(C)C)C(=O)N[C@@H](Cc2ccccc2)C(=O)OC)CO1)C(=O)N[C@@H](CC(C)C)C(=O)N[C@@H](Cc1ccccc1)C(=O)OC` reads 6.40; that for `CC(C)CNC(=O)[C@H](Cc1ccccc1)CC(O)C[C@@H](Cc1ccccc1)C(=O)NCC(C)C`, below 6.00.
As to `CCCC[C@H](CC(O)C[C@@H](CCCC)C(=O)N[C@@H](CC(C)C)C(=O)N[C@@H](Cc1ccccc1)C(=O)OC)C(=O)N[C@@H](CC(C)C)C(=O)N[C@@H](Cc1ccccc1)C(=O)OC`, the pIC50 in assay [1] was 7.05.
The same measure, in the same setting: the result for `CCCC[C@H](CC(O)C[C@@H](CCCC)C(=O)N[C@H](C(=O)N[C@H](C(=O)OC)C(C)C)C(C)C)C(=O)N[C@H](C(=O)N[C@H](C(=O)OC)C(C)C)C(C)C` reads 8.30.
Consider `COC(=O)[C@H](Cc1ccccc1)NC(=O)[C@H](CC(C)C)NC(=O)[C@H](Cc1ccccc1)CC(O)C[C@@H](Cc1ccccc1)C(=O)N[C@@H](CC(C)C)C(=O)N[C@@H](Cc1ccccc1)C(=O)OC`, for which the pIC50 in assay [1] was 7.52; with MT2 it was 5.64.
`CC(C)[C@H](NC(=O)[C@H](Cc1ccccc1)CC(O)C[C@@H](Cc1ccccc1)C(=O)N[C@H](C(=O)NCc1nc2ccccc2[nH]1)C(C)C)C(=O)NCc1nc2ccccc2[nH]1`: the pIC50 was 8.00 in assay [1] and 5.68 in the assay with MT2.
Turning to `CCCC[C@H](CC(O)(CO)C[C@@H](CCCC)C(=O)N[C@@H](CC(C)C)C(=O)N[C@@H](Cc1ccccc1)C(=O)OC)C(=O)N[C@@H](CC(C)C)C(=O)N[C@@H](Cc1ccccc1)C(=O)OC`, in assay [1], the pIC50 is 5.70.
Consider `COC(=O)[C@@H](NC(=O)[C@@H](NC(=O)[C@H](Cc1ccccc1)CC(O)C[C@@H](Cc1ccccc1)C(=O)N[C@H](C(=O)N[C@H](C(=O)OC)C(C)C)C(C)C)C(C)C)C(C)C`, for which the pIC50 is 8.30 in assay [1] and 5.80 with MT2.
As for `COC(=O)[C@@H](NC(=O)[C@@H](NC(=O)[C@@H](CC(=O)C[C@@H](Cc1ccccc1)C(=O)N[C@H](C(=O)N[C@H](C(=O)OC)C(C)C)C(C)C)Cc1ccccc1)C(C)C)C(C)C`, in assay [1], the pIC50 is below 5.00.
Consider `CC[C@H](C)[C@H](NC(=O)[C@H](Cc1ccccc1)CC(O)C[C@@H](Cc1ccccc1)C(=O)N[C@H](C(=O)NCc1ccccn1)[C@@H](C)CC)C(=O)NCc1ccccn1`, for which the pIC50 is 6.35 in assay [2] and 6.30 in the assay on MT2.
On to `COC(=O)[C@H](Cc1ccccc1)NC(=O)[C@@H](NC(=O)[C@H](Cc1ccccc1)CC(O)C[C@@H](Cc1ccccc1)C(=O)N[C@H](C(=O)N[C@@H](Cc1ccccc1)C(=O)OC)C(C)C)C(C)C`, for which the pIC50 in assay [1] is 8.00; in the assay on MT2 it was 5.62.
As for `CC[C@H](C)[C@H](NC(=O)[C@H](Cc1ccccc1)CC(O)C[C@@H](Cc1ccccc1)C(=O)N[C@H](C(=O)NCC1CCc2ccccc2N1)[C@@H](C)CC)C(=O)NCC1CCc2ccccc2N1` (stereo not given in full), the pIC50 in assay [2] was 5.92; in the assay on MT2 it was 5.12.
Regarding `CC[C@H](C)[C@H](NC(=O)[C@H](Cc1ccccc1)CC(O)C[C@@H](Cc1ccccc1)C(=O)N[C@H](C(=O)NCc1nc2ccccc2[nH]1)[C@@H](C)CC)C(=O)NCc1nc2ccccc2[nH]1`, in assay [3], the negative logarithm of the Ki (pKi) is 8.46. In addition, the pIC50 in assay [4] is 4.40; in assay [1], 8.52; with MT2, 6.40.
For `CC[C@H](C)[C@H](NC(=O)[C@H](Cc1ccccc1)CC(O)C[C@@H](Cc1ccccc1)C(=O)N[C@H](C(=O)NCCN1CCOCC1)[C@@H](C)CC)C(=O)NCCN1CCOCC1`, the negative logarithm of the IC50 (pIC50) in assay [2] is 6.07; in the assay on MT2 it was below 5.00.

As a reminder, the pIC50 is the negative decadic logarithm of the IC50, by convention in mol/L. A word on the pKi: it is the negative decadic logarithm of the Ki, by convention in mol/L.
